# According to ChEMBL document CHEMBL3632492, “Substituted 2-arylquinazolinones: Design, synthesis, and evaluation of cytotoxicity and inhibition of topoisomerases” (Eur J Med Chem, 2015):
# Columns and labels:
# [1] = molecular target: T1, DNA topoisomerase 1 (Homo sapiens) (UniProt P11387); assay: Potency index, ratio of compound activity to CPT activity for inhibition of recombinant human topoisomerase 1 at 100 uM
# T1 sequence (whole entry): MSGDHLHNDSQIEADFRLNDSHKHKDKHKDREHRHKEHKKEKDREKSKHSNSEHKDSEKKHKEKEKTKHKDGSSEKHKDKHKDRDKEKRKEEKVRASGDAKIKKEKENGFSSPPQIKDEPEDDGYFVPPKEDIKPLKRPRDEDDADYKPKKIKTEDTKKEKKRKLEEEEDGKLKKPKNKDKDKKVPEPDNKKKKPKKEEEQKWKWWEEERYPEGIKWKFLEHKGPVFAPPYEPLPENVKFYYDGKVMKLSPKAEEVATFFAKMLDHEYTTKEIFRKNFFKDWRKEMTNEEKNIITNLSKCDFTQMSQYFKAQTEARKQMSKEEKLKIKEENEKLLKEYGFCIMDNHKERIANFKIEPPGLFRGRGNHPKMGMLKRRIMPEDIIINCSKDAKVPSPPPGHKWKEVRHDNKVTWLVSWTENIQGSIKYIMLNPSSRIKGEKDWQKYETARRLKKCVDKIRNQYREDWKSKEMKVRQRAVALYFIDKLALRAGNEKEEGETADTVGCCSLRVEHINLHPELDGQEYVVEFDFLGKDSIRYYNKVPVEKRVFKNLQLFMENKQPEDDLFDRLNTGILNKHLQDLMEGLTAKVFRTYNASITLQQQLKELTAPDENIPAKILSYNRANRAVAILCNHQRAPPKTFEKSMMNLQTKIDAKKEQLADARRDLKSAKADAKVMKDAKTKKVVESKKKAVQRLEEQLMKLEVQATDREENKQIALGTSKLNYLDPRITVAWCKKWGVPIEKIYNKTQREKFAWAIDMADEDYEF
# [2] = molecular target: T1, DNA topoisomerase 1 (Homo sapiens); assay: Inhibition of recombinant human topoisomerase 1 assessed as relaxation of supercoiled plasmid DNA pBR322 at 100 uM incubated for 30 mins by agarose gel electrophoresis
# [3] = molecular target: T1, DNA topoisomerase 1 (Homo sapiens); assay: Inhibition of recombinant human topoisomerase 1 assessed as relaxation of supercoiled plasmid DNA pBR322 at 20 uM incubated for 30 mins by agarose gel electrophoresis
# [4] = molecular target: DNA topoisomerase 2-alpha (Homo sapiens) (UniProt P11388); assay: Inhibition of recombinant human topoisomerase 2alpha assessed as relaxation of supercoiled plasmid DNA pBR322 at 100 uM incubated for 30 mins by agarose gel electrophoresis
# [5] = molecular target: DNA topoisomerase 2-alpha (Homo sapiens) (UniProt P11388); assay: Inhibition of recombinant human topoisomerase 2alpha assessed as relaxation of supercoiled plasmid DNA pBR322 at 20 uM incubated for 30 mins by agarose gel electrophoresis
# [6] = molecular target: T1, DNA topoisomerase 1 (Homo sapiens); assay: Potency index, ratio of compound activity to CPT activity for inhibition of recombinant human topoisomerase 1 at 20 uM
# [7] = molecular target: DNA topoisomerase 2-alpha (Homo sapiens) (UniProt P11388); assay: Potency index, ratio of compound activity to etoposide activity for inhibition of recombinant human topoisomerase 2alpha at 100 uM
# [8] = molecular target: DNA topoisomerase 2-alpha (Homo sapiens) (UniProt P11388); assay: Potency index, ratio of compound activity to etoposide activity for inhibition of recombinant human topoisomerase 2alpha at 20 uM
# [9] = molecular target: DNA topoisomerase 2-alpha (Homo sapiens) (UniProt P11388); assay: Inhibition of recombinant human topoisomerase 2alpha mediated decatenation using kDNA as substrate at 100 uM incubated for 30 mins by agarose gel electrophoresis
# [10] = molecular target: DNA topoisomerase 2-alpha (Homo sapiens) (UniProt P11388); assay: Inhibition of recombinant human topoisomerase 2alpha mediated decatenation using kDNA as substrate at 50 uM incubated for 30 mins by agarose gel electrophoresis
# HCT-15 = assay: Cytotoxicity against human HCT15 cells measured after 2 days by MTT assay; type: functional, cell-based; conditions: HCT-15, 48 h
# T47D = assay: Cytotoxicity against human T47D cells measured after 2 days by MTT assay; type: functional, cell-based; conditions: 48 h
# HeLa = assay: Cytotoxicity against human HeLa cells measured after 2 days by MTT assay; type: functional, cell-based; conditions: 48 h
# Chain of DNA topoisomerase 2-alpha (Homo sapiens) (P11388 whole entry): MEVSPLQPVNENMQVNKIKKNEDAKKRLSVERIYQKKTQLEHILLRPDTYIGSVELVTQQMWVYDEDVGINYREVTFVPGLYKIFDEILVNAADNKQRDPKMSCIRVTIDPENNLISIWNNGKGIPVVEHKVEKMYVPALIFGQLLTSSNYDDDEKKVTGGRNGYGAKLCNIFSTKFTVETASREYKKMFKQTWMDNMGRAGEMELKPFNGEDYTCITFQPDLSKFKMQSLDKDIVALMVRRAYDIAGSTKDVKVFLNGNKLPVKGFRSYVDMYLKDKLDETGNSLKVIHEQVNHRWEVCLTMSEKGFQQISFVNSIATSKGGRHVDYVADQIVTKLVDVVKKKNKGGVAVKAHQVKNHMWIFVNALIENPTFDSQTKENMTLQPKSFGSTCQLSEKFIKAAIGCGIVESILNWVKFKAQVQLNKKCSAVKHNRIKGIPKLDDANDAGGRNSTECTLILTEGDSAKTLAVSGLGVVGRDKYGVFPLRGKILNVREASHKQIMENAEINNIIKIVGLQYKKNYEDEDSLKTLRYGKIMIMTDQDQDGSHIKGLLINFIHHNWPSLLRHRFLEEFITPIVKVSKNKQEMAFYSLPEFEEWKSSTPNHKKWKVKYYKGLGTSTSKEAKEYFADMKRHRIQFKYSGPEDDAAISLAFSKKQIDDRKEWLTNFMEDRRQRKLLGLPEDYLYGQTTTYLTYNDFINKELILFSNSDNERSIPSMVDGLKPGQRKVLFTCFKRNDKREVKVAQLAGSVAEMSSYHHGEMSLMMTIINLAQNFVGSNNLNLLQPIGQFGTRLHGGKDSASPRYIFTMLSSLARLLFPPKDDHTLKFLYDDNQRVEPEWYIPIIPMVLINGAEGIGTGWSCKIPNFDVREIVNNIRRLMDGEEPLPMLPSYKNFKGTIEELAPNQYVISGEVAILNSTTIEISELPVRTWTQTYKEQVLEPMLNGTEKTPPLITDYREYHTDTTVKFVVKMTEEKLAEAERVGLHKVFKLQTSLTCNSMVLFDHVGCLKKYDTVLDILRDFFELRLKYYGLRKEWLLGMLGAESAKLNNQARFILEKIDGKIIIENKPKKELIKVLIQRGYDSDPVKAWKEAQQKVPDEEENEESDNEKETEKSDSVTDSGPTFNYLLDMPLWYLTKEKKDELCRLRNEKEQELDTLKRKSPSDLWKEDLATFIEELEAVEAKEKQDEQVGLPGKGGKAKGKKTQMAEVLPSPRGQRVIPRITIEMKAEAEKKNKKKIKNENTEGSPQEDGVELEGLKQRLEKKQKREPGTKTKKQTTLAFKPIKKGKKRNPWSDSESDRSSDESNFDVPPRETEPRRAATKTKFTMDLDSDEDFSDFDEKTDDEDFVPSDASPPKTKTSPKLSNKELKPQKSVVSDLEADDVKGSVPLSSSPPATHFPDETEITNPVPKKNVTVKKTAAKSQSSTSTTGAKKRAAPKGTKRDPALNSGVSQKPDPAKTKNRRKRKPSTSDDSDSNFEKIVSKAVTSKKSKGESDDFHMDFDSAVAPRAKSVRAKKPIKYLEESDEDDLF
Structure (SMILES),Ratio [1],inhibition [2],inhibition [3],inhibition [4],inhibition [5],Ratio [6],Ratio [7],Ratio [8],inhibition [9],inhibition [10],IC50 (HCT-15),IC50 (T47D),IC50 (HeLa)
O=c1[nH]c(-c2cccc3ccccc23)nc2ccc(N3CCOCC3)cc12,1.24,100%,10.7%,46.4%,39.2%,0.62,0.58,0.78,83.8%,3.2%,> 50 µM,> 50 µM,0.12 µM
Cc1c2ccncc2c(C)c2c1[nH]c1ccccc12,–,–,–,–,–,–,–,–,88.3%,–,–,–,–
Cc1ccc2c(=O)[nH]c(-c3ccccc3C)nc2c1,1.29,100%,39.2%,61.4%,30.8%,1.27,0.77,0.62,32.4%,0%,11.9 µM,> 50 µM,> 50 µM
